SMILES strings stand for the structures. ≈ marks a conversion by molar mass, not a printed value.

For this data set the following is noted: buffer; pH 7.4; 200.0 µM.
On to `C#CC(C)(CC)NC(=O)c1cc2cccc(CC=C)c2oc1=O` (centres undefined), for which the solubility (kinetic) came to 0.8 µg/mL (≈ 2.59 µM).
The compound `CS(=O)(=O)N(CC(=O)N1CCOCC1)c1cccc([N+](=O)[O-])c1` gave a solubility (kinetic) of over 51.5 µg/mL.
Turning to `COc1cccc(C(=O)Nc2sc3c(c2C(=O)O)CCCC3)c1`, the solubility (kinetic) is over 49.7 µg/mL.
`CC(C)CNP(=S)(c1ccccc1)C(C)(C)C` (centres undefined) showed a kinetic solubility of 1.7 µg/mL (≈ 6.31 µM).
In the case of `CCCc1nc(SCC(=O)Nc2nccs2)c2ccccc2n1`, the kinetic solubility is 0.9 µg/mL (≈ 2.61 µM).
The same measure for `CN(C)CCOC(=O)NCC12CC3CC(CC(C3)C1)C2.Cl`: over 47.5 µg/mL.
`O=C(O)c1sccc1S(=O)(=O)N1CCOCC1` registered a solubility (kinetic) of over 41.6 µg/mL.
To `Cc1ccc(C)c(NC(=O)Nc2ccc3c(c2)OCO3)c1` belongs 1 µg/mL (≈ 3.52 µM); to `CC(Oc1ccc(C#N)cc1)C(=O)c1ccc(F)c(F)c1` (centres undefined), 32.6 µg/mL (≈ 113 µM); to `Fc1cc(Cl)c(OCc2noc(-c3ccsc3)n2)c(Cl)c1`, 0.5 µg/mL (≈ 1.45 µM).
As to `COc1nc(N)nc(N)c1NS(=O)(=O)c1ccc(C)cc1`, the kinetic solubility is over 46.4 µg/mL.
In the case of `Cc1cccc(-c2noc(CCC(=O)NC3CCCC3)n2)c1`, the solubility (kinetic) is over 44.9 µg/mL.
`CCC1(CC)Cc2ccccc2-c2nc(CCl)[nH]c(=O)c21` gave a kinetic solubility of 1.2 µg/mL (≈ 3.96 µM).
`COc1ccc(CN(C)C(C)C(=O)Nc2ccc(S(=O)(=O)N3CCCCC3)cc2)c(OC)c1` (centres undefined) yielded a kinetic solubility of 6.1 µg/mL (≈ 12.8 µM).
In turn, `CCCCN1C(=O)C(=O)N(CC(=O)Nc2ccc(OC(F)(F)F)cc2)C1=O` yielded a kinetic solubility of 6.6 µg/mL (≈ 17 µM).
The same measure for `CCOC(=O)C1CCN(C(=O)Nc2ccc(OC(F)(F)F)cc2)CC1`: 16.1 µg/mL (≈ 44.7 µM).
Consider `O=C(COc1cccc2cccnc12)NCc1cccs1`, for which the solubility (kinetic) was 37.6 µg/mL (≈ 126 µM).
Consider `COc1cc(/C=N/Nc2ccccn2)cc(OC)c1O`, for which the solubility (kinetic) was over 41 µg/mL.
In the case of `CSc1cccc(NC(=O)COC(=O)c2ccccn2)c1`, the kinetic solubility was over 45.4 µg/mL.
`C=CC(=O)NC(NC(=O)C=C)c1ccccc1F`: the kinetic solubility was over 37.2 µg/mL.
In the case of `O=C(CN1C(=O)c2ccccc2C1=O)Nc1nccs1`, the kinetic solubility stood at 17.4 µg/mL (≈ 60.6 µM).
In turn, `COc1ccc(-n2cc(-c3ccc(Br)cc3)[nH]c2=S)cc1` returned a kinetic solubility of under 0.4 µg/mL.
Turning to `CC1CCCC1/C(=N/O)c1ccccc1` (centres undefined), the solubility (kinetic) was 16.9 µg/mL (≈ 83.1 µM).
To `CCc1c(C(=O)N2CCCN(C)CC2)csc1C` belongs over 40 µg/mL; to `CC1C(C#N)=C(N)OC2=C1C(=O)CC(c1ccccc1)C2` (centres undefined), over 42 µg/mL; to `O=CNCCCc1nc2ccccc2n1CCc1ccccc1`, over 46.1 µg/mL.
The same measure for `Cc1ccc(C)c(Oc2cc(F)nc(N)n2)c1`: over 35 µg/mL.
As to `CC(C(=O)N(C)C1CCCCC1)N1CCC(C(N)=O)CC1` (centres undefined), the kinetic solubility is 43.1 µg/mL (≈ 146 µM).
For the compound `CCCc1nc2oc3ccccc3c(=O)c2c(=O)n1-c1ccccc1`, the solubility (kinetic) was 37.2 µg/mL (≈ 112 µM).
`CCC1(C)Cc2ccccc2-c2[nH]c(=S)[nH]c(=O)c21` (centres undefined) displayed a kinetic solubility of 22.1 µg/mL (≈ 81.1 µM).
Consider `CCCC(C)NC(=O)COC(=O)c1cccc(NS(C)(=O)=O)c1` (centres undefined), for which the solubility (kinetic) worked out at 50.7 µg/mL (≈ 148 µM).
The compound `Cc1ccccc1C(=O)NC(=S)N(C)C1CCCCC1` showed a kinetic solubility of 41.4 µg/mL (≈ 143 µM).
`NC(=O)c1ccc(NC(=O)COC(=O)c2cc3c(s2)CCC3)cc1` had a kinetic solubility of 8.6 µg/mL (≈ 25 µM).
The same measure for `Cc1ccc(/C=C2/SC(=S)N(CCC(=O)N3CCOCC3)C2=O)cc1`: under 0.4 µg/mL.
Compound `Cc1c(Cl)cccc1NC(=S)Nc1ccc(S(=O)(=O)Nc2ncccn2)cc1` yielded a solubility (kinetic) of 64.9 µg/mL (≈ 150 µM).
`FC(F)(F)c1nc2cc3nc4ccccc4[nH]c3cc2n1` yielded a kinetic solubility of 9.2 µg/mL (≈ 31.9 µM).
Compound `COc1ccc(C2SCC(=O)N2c2ccc(C)cc2)cc1` (centres undefined) yielded a solubility (kinetic) of 37.5 µg/mL (≈ 125 µM).
Compound `CC12CC3CC(C1)CC(C(=O)NNC(=O)c1ccncc1)(C3)C2` yielded a solubility (kinetic) of over 47 µg/mL.
In the case of `O=C(NCCCN1CCCC1=O)c1ccc(Cl)c(Cl)c1`, the solubility (kinetic) worked out at 45.9 µg/mL (≈ 146 µM).
`Clc1ccc(C(c2ccccc2)N2CCN(c3ccccn3)CC2)cc1` (centres undefined) yielded a solubility (kinetic) of 0.9 µg/mL (≈ 2.47 µM).
Consider `COc1ccc(C(=O)Nc2ccc3c(c2)n(C)c(=O)n3C)cc1OC`, for which the kinetic solubility came to 8.4 µg/mL (≈ 24.6 µM).
Turning to `COc1ccc(NC(=O)c2cc(-c3cccc(OC)c3)on2)cc1`, the kinetic solubility was under 0.3 µg/mL.
To `CN1CCN(S(=O)(=O)c2ccc3c(c2)CC(=O)N3C)CC1` belongs over 46.4 µg/mL.
`COc1ccc(-n2c(O)c(C=NCCN(C)C)c(=O)[nH]c2=O)cc1` gave a kinetic solubility of over 49.9 µg/mL.
In turn, `CC(CN1C(C)CCCC1C)OC(=O)c1ccc(Cl)cc1` (centres undefined) yielded a kinetic solubility of over 46.5 µg/mL.
As to `Cc1ccc(C(=O)OCC(=O)NCc2ccc3c(c2)OCO3)cc1S(=O)(=O)N1CCOCC1`, the solubility (kinetic) was 7.2 µg/mL (≈ 15.1 µM).
Compound `COc1ccc(S(=O)(=O)N2CC(=O)Nc3ccccc32)cc1` registered a solubility (kinetic) of over 47.8 µg/mL.
To `COc1ccccc1CNC(=O)Cc1ccc(OC)c(OC)c1` belongs over 47.3 µg/mL; to `CCOc1ccccc1NC(=O)NCCN1CCCCC1`, over 43.7 µg/mL; to `CC1(C)CC(=O)C=C(NCC(O)c2ccccc2)C1` (centres undefined), 36.7 µg/mL (≈ 142 µM).
The compound `O=C1CCc2cc(S(=O)(=O)Nc3ccc(F)cc3)ccc2N1` registered a kinetic solubility of over 48.1 µg/mL.
The same measure for `CCOc1ccccc1Nc1cc(C)c2cccc(C)c2n1`: 0.5 µg/mL (≈ 1.71 µM); for `CCN1CCN(C(=O)/C=C/c2ccc(C)cc2)CC1`: over 38.8 µg/mL; for `O=C(COC(=O)c1ccc([N+](=O)[O-])s1)NNC(=O)c1ccccc1`: over 52.4 µg/mL.
`O=C1CSC(c2ccccn2)N1c1ccc(F)cc1F` (centres undefined) returned a solubility (kinetic) of over 43.8 µg/mL.
The compound `O=C1NC(=O)N(c2ccccc2)C1=O` showed a solubility (kinetic) of over 28.5 µg/mL.
`Cc1nn(-c2ccccn2)c(N)c1N=O` came in with a solubility (kinetic) of over 30.5 µg/mL.
With `COc1ccc(CC(=O)Nc2nc(C)cs2)cc1`, the kinetic solubility is 27.2 µg/mL (≈ 104 µM).
To `COc1cc2c(cc1OC)-c1cc(Nc3ccc(F)cc3)nc(=O)n1CC2` belongs 2.1 µg/mL (≈ 5.72 µM).
Regarding `O=C(CN1C(=O)C2C3C=CC(C3)C2C1=O)OCC(=O)c1ccc(Cl)cc1` (centres undefined), the solubility (kinetic) is over 56.1 µg/mL.
In turn, `COc1cccc(OC)c1C(=O)OCC(=O)NCC(C)C` registered a kinetic solubility of over 44.3 µg/mL.
With `Cc1cccc(N2N=C(C(=O)N3Cc4ccccc4CC3C(N)=O)CCC2=O)c1` (centres undefined), the solubility (kinetic) was over 58.6 µg/mL.
`CCC(=O)c1cn(CC(=O)Nc2ccc(OC)cc2)c2ccccc12` returned a solubility (kinetic) of under 0.4 µg/mL.
`CNc1nc(-c2c(C)[nH]c3ccc(OC)cc23)cs1` came in with a solubility (kinetic) of 31.8 µg/mL (≈ 116 µM).
`CC(C)c1nc(SCC(=O)NC2CCCC2)c2ccccc2n1`: the solubility (kinetic) amounted to 6.1 µg/mL (≈ 18.5 µM).
To `CC(=O)Cn1c(=O)oc2ccccc21` belongs 27.1 µg/mL (≈ 142 µM); to `O=C(Nc1ccc(S(=O)(=O)N2CCCC2)cc1)c1ccc([N+](=O)[O-])o1`, 6.8 µg/mL (≈ 18.6 µM).
Compound `CC1=NN(c2nc(-c3ccc(C#N)cc3)cs2)C(=O)C1` had a solubility (kinetic) of over 42.3 µg/mL.
Consider `Cc1cccc(OC(=O)c2cccnc2)c1C`, for which the solubility (kinetic) was found to be 25 µg/mL (≈ 110 µM).
On to `O=c1oc2ccccc2c(Cl)c1CN1CCCCC1`, for which the kinetic solubility stood at 41.4 µg/mL (≈ 149 µM).
On to `O=C(NCCCSc1ccccc1)c1cccnc1`, for which the kinetic solubility was over 40.9 µg/mL.
On to `CCOC(=O)C1CCN(CC(=O)Nc2ccc(OC)c(S(=O)(=O)N3CCCCC3)c2)CC1`, for which the solubility (kinetic) was over 70.1 µg/mL.
Consider `COc1ccc(C(C)C)cc1S(=O)(=O)NCC1CCCO1` (centres undefined), for which the solubility (kinetic) turned out to be 44.3 µg/mL (≈ 141 µM).
The same measure for `NS(=O)(=O)c1cccc(NC(=O)c2cccs2)c1`: over 42.3 µg/mL; for `COc1ccc(CCNC(=O)c2ccco2)cc1OC`: 40.8 µg/mL (≈ 148 µM).
For the compound `Cc1cc(/C=C(/C#N)C(=O)O)c(C)n1-c1cccc2ccccc12`, the kinetic solubility is over 47.5 µg/mL.
`O=C(O)C(Cc1ccccc1)N1C(=O)CCC1=O` (centres undefined) displayed a kinetic solubility of over 37.1 µg/mL.
As to `O=C(O)CCc1ccc(-c2ccccc2)n1-c1cccc(C(=O)O)c1`, the kinetic solubility is over 50.3 µg/mL.
The same measure for `O=S(=O)(NC1CCSc2ccccc21)c1ccccc1` (centres undefined): 15.6 µg/mL (≈ 51.1 µM); for `CCOc1ccc(C(C)NC(=O)C2CCCC2)cc1` (centres undefined): over 39.2 µg/mL.
The compound `O=C(CN1CCN(c2ccc(F)cc2)CC1)Nc1nccs1` gave a kinetic solubility of 24.5 µg/mL (≈ 76.5 µM).
To `Cc1ccnc(SC2CC(=O)N(c3ccc(C(C)C)cc3)C2=O)n1` (centres undefined) belongs over 51.2 µg/mL.
In the case of `NC(=O)c1nn(CC(=O)Nc2ccc3c(c2)OCO3)cc1[N+](=O)[O-]`, the kinetic solubility is over 50 µg/mL.
To `O=C(Nc1cccc(F)c1)c1c(O)c2ccccc2[nH]c1=O` belongs under 0.3 µg/mL; to `OC1CCC(NC(=S)Nc2ccc(SC(F)F)cc2)CC1` (centres undefined), 43.8 µg/mL (≈ 132 µM); to `O=C(CCc1nc(-c2ccccc2Cl)no1)Nc1cccnc1`, 49.3 µg/mL (≈ 150 µM).
In turn, `CCOc1cc(N2CCOCC2)c(OCC)cc1NC(=O)c1cnccn1` registered a kinetic solubility of 11.9 µg/mL (≈ 32 µM).
The same measure for `O=C(O)c1ccccc1N1C(=O)C2C3CCC(C3)C2C1=O` (centres undefined): 39.5 µg/mL (≈ 138 µM).
For the compound `CC(C)CC(=O)N1CCN(Cc2ccc(Br)cc2)CC1`, the solubility (kinetic) was 28.1 µg/mL (≈ 82.8 µM).
For `CN(C)c1cc(Nc2ccc(O)cc2)c([N+](=O)[O-])c2nonc12`, the kinetic solubility was found to be 0.7 µg/mL (≈ 2.22 µM).
The same measure for `COc1ccc(C(=O)Nc2nccs2)cc1`: 8.1 µg/mL (≈ 34.6 µM).
Turning to `Cc1cccc(NC(=O)CSc2nncn2-c2ccccn2)c1`, the kinetic solubility was over 48.8 µg/mL.
Turning to `Cc1ccnn1-c1ccc(C(=O)NCc2ccccc2CN2CCOCC2)cc1`, the solubility (kinetic) is over 58.6 µg/mL.
For `Cl.OC(c1ccccc1)C(CN1CCOCC1)c1ccccc1` (centres undefined), the solubility (kinetic) was over 50.1 µg/mL.
`N/C(=N\S(=O)(=O)c1ccc(Cl)cc1)N1CCOCC1` came in with a kinetic solubility of over 45.6 µg/mL.
Consider `CCC(C)c1ccccc1OCCCN(C)Cc1ccccc1` (centres undefined), for which the solubility (kinetic) came to 4.1 µg/mL (≈ 13.2 µM).
Consider `CC(C)COc1ccc(Cc2c(O)[nH]c(=S)[nH]c2=O)cc1`, for which the kinetic solubility was determined as 28.9 µg/mL (≈ 94.3 µM).
Regarding `Cc1ccc2c(c1)NC(=O)c1cccc([N+](=O)[O-])c1CO2`, the solubility (kinetic) is 7 µg/mL (≈ 24.6 µM).
To `Cc1ccc(F)cc1N=Cc1c(O)c2ccccc2oc1=O` belongs under 0.6 µg/mL.
The compound `c1ccc(-c2nc3ccccn3c2-c2ccccc2)cc1` had a solubility (kinetic) of 10.1 µg/mL (≈ 37.4 µM).
`CCOC(=O)c1ccc(N)cc1` yielded a solubility (kinetic) of over 24.8 µg/mL.
Regarding `O=C(COc1cccc(Br)c1)Nc1ccc(Cl)c(S(=O)(=O)N2CCOCC2)c1`, the kinetic solubility amounted to 4.1 µg/mL (≈ 8.37 µM).
The compound `O=C(Nc1ccccc1F)c1c[nH]c(=O)[nH]c1=O` displayed a kinetic solubility of 5.5 µg/mL (≈ 22.1 µM).
Take `NC(=O)COC(=O)c1sc2ccccc2c1Cl`: the solubility (kinetic) was 12.4 µg/mL (≈ 46 µM).

The term solubility (kinetic) denotes the concentration staying in solution when a stock, usually in DMSO, is diluted into the medium.

These data come from PubChem BioAssay AID1996.
